From EP0185020B1, “NI[…] PREPARATION THEREOF AND UTILIZATION THEREOF IN ANTICANCEROUS CHEMIOTHERAPY” (CENTRE NATIONAL DE LA RECHERCHE SCIENTIFIQUE (CNRS), priority 1984, dated 1985)

Legend:
souche leucémique L1210 = assay: Antitumour activity on L1210 leukaemia inoculated i.p. in mice (ICIG, Example 11); type: in vivo, souris B6D2F1/OLA; conditions: for indices I: dose not given; for survie à 60 jours: à différentes doses
From the text: L'activité oncostatique de ces dérivés nitrosés a été déterminée à l'ICIG de Villejuif (Service du Pr. Mathe), en suivant un protocole expérimental décrit: M. Hayat et Coll., Cancer Chemother. Phar- macol., 1979, 3,217-221, R. Maral et Coll., Eur. J. Med. Chem., soumis pour publication.
(§1) Des souris B6D2F1/OLA, mâles, sont inoculées avec 10^5 cellules de la souche leucémique L1210 par voie intrapéritonéale au jour 0 et divisées en groupes. Le premier est le groupe témoin et les autres sont traités avec les drogues à différentes concentrations au jour 1,5 et 9. Les composés sont injectés en suspension dans l'huile d'olive. La mortalité des animaux est observée et l'autopsie indique si elle est due à la leucémie ou à l'action toxique des produits.
(§2) La dose létale 50% (DL50 aiguë) est déterminée en tenant compte de la mortalité survenue avant le huitième jour chez les animaux traités au jour J: 1. La médiane de survie des animaux traités (mT) et des animaux témoin (mC) a été établie et le test statistique non paramétrique de Wilcoxon a été utilisé. Les résultats sont considérés positifs si l'indice I (I = ^mT x 100) est supérieur à 125 et le test mC significatif à p ≼ 0,05. La valeur ∞ indique que 50% ou plus des animaux sont survivants au jour +60.
Plus l'intervalle des doses à efficacité maximale, ayant donc I = ∞, est important, plus le produit est doué d'une activité intéressante sur la leucémie L1210.

[1] = Acute lethal dose 50% (DL50 aiguë), i.p.; type: in vivo, souris B6D2F1/OLA; conditions: for DL 50: i.p., mortality before day 8 in animals treated on day 1, 11520 min
From the text: as §1, §2

| Compound | I = T/c × 100 (souche leucémique L1210; 0,8 mg/kg i.p., jours 1,5,9) | I = T/c × 100 (souche leucémique L1210; 0,32 mg/kg i.p., jours 1,5,9) | I = T/c × 100 (souche leucémique L1210; 2 mg/kg i.p., jours 1,5,9) | % de survivants à 60 jours (souche leucémique L1210; 5 mg/kg i.p., jours 1,5,9) [%] | I = T/c × 100 (souche leucémique L1210; 5 mg/kg i.p., jours 1,5,9) | % de survivants à 60 jours (souche leucémique L1210; 10 mg/kg i.p., jours 1,5,9) [%] | I = T/c × 100 (souche leucémique L1210; 10 mg/kg i.p., jours 1,5,9) | % de survivants à 60 jours (souche leucémique L1210; 12,5 mg/kg i.p., jours 1,5,9) [%] | I = T/c × 100 (souche leucémique L1210; 12,5 mg/kg i.p., jours 1,5,9) | indices I (souche leucémique L1210) | survie à 60 jours (souche leucémique L1210) [%] | DL 50 [1] [mg/kg] | I = T/c × 100 (souche leucémique L1210; 15 mg/kg i.p., jours 1,5,9) | further results |
| --- | --- | --- | --- | --- | --- | --- | --- | --- | --- | --- | --- | --- | --- | --- |
| O=NN(CCCl)C(=O)NCCS [(1) ICIG 2016, N-[N-(chloro-2 éthyl) N-nitrosocarbamoyl] cystéamine] | 162 | 265 | 188 | 100 | ∞ (La valeur ∞ indique que 50% ou plus des animaux sont survivants au jour +60) | 100 | ∞ (La valeur ∞ indique que 50% ou plus des animaux sont survivants au jour +60) | 100 | ∞ (La valeur ∞ indique que 50% ou plus des animaux sont survivants au jour +60) | infini | 100 | 19 |  | % de survivants à 60 jours (souche leucémique L1210; 15 mg/kg i.p., jour + 1): 100%; I = T/c × 100 (souche leucémique L1210; 15 mg/kg i.p., jour + 1): ∞ (La valeur ∞ indique que 50% ou plus des animaux sont survivants au jour +60) |
| CSCCNC(=O)N(CCCl)N=O [(3) ICIG 2017, S-méthyl N-[N-(chloro-2 éthyl)N-nitrosocarbamoyl] cystéamine] | 167 | 133 | 158 | 100 | ∞ (La valeur ∞ indique que 50% ou plus des animaux sont survivants au jour +60) |  |  | 87 | ∞ (La valeur ∞ indique que 50% ou plus des animaux sont survivants au jour +60) | infini | 100 | 22 | 156 |  |
| CC(=O)SCCNC(=O)N(CCCl)N=O [(5) ICIG 2018, S-acétyl N-[N-(chloro-2 éthyl) N-nitrosocarbamoyl] cystéamine] |  |  |  | 14 | 217 | 100 | ∞ (La valeur ∞ indique que 50% ou plus des animaux sont survivants au jour +60) | 80 | ∞ (La valeur ∞ indique que 50% ou plus des animaux sont survivants au jour +60) | infini | 100 | 25 | 490 | I = T/c × 100 (souche leucémique L1210; 0,64 mg/kg i.p., jours 1,5,9): 100; I = T/c × 100 (souche leucémique L1210; 4 mg/kg i.p., jours 1,5,9): 158; % de survivants à 60 jours (souche leucémique L1210; 15 mg/kg i.p., jours 1,5,9): 25%; I = T/c × 100 (souche leucémique L1210; 20 mg/kg i.p., jours 1,5,9): 211; I = T/c × 100 (souche leucémique L1210; 1,6 mg/kg i.p., jours 1,5,9): 117 |
| O=NN(CCCl)C(=O)NCCSC(c1ccccc1)(c1ccccc1)c1ccccc1 [(9) ICIG 2069, S-trityl N-[N-(chloro-2 éthyl) N-nitrosocarbamoyl] cystéamine] |  |  |  |  |  |  |  |  |  |  |  |  |  | I = T/c × 100 (souche leucémique L1210; 250 mg/kg i.p., jours 1,5,9, résultats partiels): > 278; I = T/c × 100 (souche leucémique L1210; 625 mg/kg i.p., jours 1,5,9, résultats partiels): > 278; toxicité, in words [1]: n'est pas toxique |
